Measurements reported in patent US20170315136A9, “BIOMARKER ASSAY OF NEUROLOGICAL CONDITION” (priority 2009, published 2017).

Legend:
[1] = test system: Mouse, rat cortical or hippocampal primary neurons; assay: In vitro drug candidate screening for neurotoxicity (ELISA of cell lysates); type: cell-based; settings: primary neurons 21 DIV; Glutamate 0.01 to 1000 μM for 30 minutes, H2O2 0.001 to 1000 μM for 24 hours; lysates by ELISA
Description: In vitro drug candidate screening for neurotoxicity. Mouse, rat cortical or hippocampal primary neurons are cultured for 21 DIV, and the dose dependent responses of drugs are investigated. Cultured cells are exposed to various concentrations of: Glutamate (0.01 to 1000 μM) in 10 μM glycine both in HBSS; B) 0.01 to 100 μM Kainate in culture media; C) H2O2 (0.001 to 1000 μM) in culture media; C) Zinc (0.01 to 1000 μM) in culture media; D) U0126 (0.001 to 100 μM) in culture media; and E) and equal volume of culture media as a control. Glutamate treatment is performed for 30 minutes after which the cells are washed and the HBSS is replaced with culture media and analyzed. The remaining candidates are treated for 24 hours and analyzed. The levels of intracellular UCH-L1 and SBDP 145 are analyzed following cell lysis and screening of the lysates by ELISA using anti-UCH-L1 and SBDP 145 specific antibodies. The levels of UCH-L1 are increased following exposure particularly to Glutamate and H2O2.

[2] = test system: Female Sprague-Dawley rats; settings: for GFAP levels / SBDP150 levels / UCH-L1 levels: biofluid, 30, 60, 90, 120 minutes following dosing
Description: Acute oral In vivo drug candidate screening for neurotoxicity. […] A total of four to eight animals of are used for each dose level investigated.
At 30, 60, 90, and 120 minutes following dosing, the rats are sacrificed by decapitation and blood is obtained by cardiac puncture. The levels of biofluid UCH-L1 and SBDP 150 and GFAP are analyzed by sandwich ELISA or western blot by using UCH-L1 and SBDP 150 and GFAP specific antibodies.

| SMILES | GFAP levels [2] | SBDP150 levels [2] | UCH-L1 levels [2] | other results |
| --- | --- | --- | --- | --- |
| N[C@@H](CCC(=O)O)C(=O)O [Glutamate] | – | – | – | levels of intracellular UCH-L1 [1]: increased |
| C[C@]12N[C@H](Cc3ccccc31)c1ccccc12 [dizocilpine] | increase | increase | increase | – |
| C=C(C)[C@H]1CN[C@H](C(=O)O)[C@H]1CC(=O)O [kainic acid] | increase | increase | increase | – |
| CN1CC=C(c2ccccc2)CC1 [MPTP] | increase | increase | increase | – |
| CN[C@@H](C)Cc1ccccc1 [methamphetamine] | – | – | – | CSF concentration of GFAP ([2]; rat, in vivo): increase; CSF concentration of SBDP 150 ([2]; rat, in vivo): increase; CSF concentration of UCH-L1 ([2]; rat, in vivo): increase |
| N.N.[Cl][Pt][Cl] [Cisplatin, cisplatin] | increase | increase | increase | – |
| OO [H2O2] | – | – | – | levels of intracellular UCH-L1 [1]: increased |
